Source: US6573271B2, “Method of preventing proliferation of retinal pigment epithelium by retinoic acid receptor agonists” (John Hopkins University School of Medicine, priority 1995, dated 2003)

How the values were obtained:
[1] = system: traction retinal detachment in rabbits; assay: Traction retinal detachment in rabbits after human dermal fibroblasts, subconjunctival injection
[2] = system: traction retinal detachment in rabbits; assay: Traction retinal detachment in rabbits after human dermal fibroblasts, intravitreous lipid microvesicles
Text: In this experiment the retinoid was incorporated into lipid microvesicles utilizing standard techniques.

[3] = system: human RPE cells; assay: [3H]thymidine incorporation / proliferation of cultured human RPE cells; conditions: for inhibition at 0.05 µM / inhibition at 0.1 µM / inhibition at 1 µM: Homo sapiens, RPE, read-out: Percent Inhibition of [3H]thymidine incorporation in RPE cells
Text: Primary cultures of human retinal pigment epithelium (RPE) cells were established from eyes obtained from the Old Dominion Eye Bank (Richmond, Va.) or the Eye Bank of Maryland (Baltimore, Md.) using the technique described in P. A. Campochiaro, et al., Invest.
For [3H]thymidine incorporation, RPE cells at passage 3 or 4 were lightly trypsinized and plated in 16-mm wells of 24-well plates. The transfected cells were allowed to attach overnight and then the media containing 5% fetal bovine serum (FBS) were supplemented with retinoids or vehicle alone. Stock solutions (10^−3M) of retinoids were prepared in dimethylsulfoxide (DMSO) and stored as frozen aliquots until used; the highest final concentration of DMSO was 0.1% and was also used for control cultures. The media containing freshly prepared retinoids were changed every three days. At 7 or 10 days 2 μCi/ml of [^3H]thymidine (specific activity, 6.7 Ci/mM; New England Nuclear, Boston, Mass.) was added to the cultures and incorporation was measured as previously described (Leschey, supra).
The potency of retinoid agonists for inhibition of serum stimulated DNA synthesis in human RPE cells was tested. […] The cells were shifted to serum-free media containing the same concentration of retinoid and then pulsed with 10% serum for 18 hours, after which [^3H]thymidine incorporation was measured. Thymidine incorporation for cells grown in control medium was used to calculate the percent inhibition of thymidine incorporation induced by four concentrations of each retinoid (each concentration tested in triplicate) which were then used to generate each line.

[4] = system: rabbit cell injection model of PVR; assay: Rabbit cell injection model of PVR (RPE cells), intravitreous injection of retinoids; assay type: in vivo; conditions: for Any RD (%) / Total RD (%): 28 Days; for frequency and severity of traction retinal detachments versus vehicle: initial group, intravitreous injections of 100 μg; for frequency and severity of retinal detachments versus control: single intravitreous injection one day after RPE cell injection
Procedure: Briefly, pigmented rabbits were anesthetized with a subcutaneous injection of 5 mg/kg of xylazine and 25 mg/kg of ketamine, and the pupil of one eye was dilated with 2½% phenylephrine. Under direct observation 5×10^5 RPE cells were injected into the vitreous cavity just anterior to the optic nerve. […] .
Rabbits were examined by indirect ophthalmoscopy on days 7, 14 and 28 and traction retinal detachments were graded. […] . The localized clouds decreased in size and cleared over 2 to 3 weeks. There were no visible changes in the retina. […] .
It was felt that the hair loss and possibly the loss of appetite and death were due to systemic toxicity from drug that had gotten out of the eye. […] . None of the rabbits experienced hair loss and none died; their appetites appeared to be normal.

[5] = system: rabbit model of PVR; conditions: 2 to 20 μg/ml SiO, 8 weeks; untreated controls 100%; cited from earlier work
[6] = system: traction retinal detachment in rabbits; assay: Traction retinal detachment in rabbits after human RPE cells, intravitreal injection of 168 and 299; assay type: in vivo, rabbit
[7] = system: traction retinal detachment in rabbits; assay: Traction retinal detachment in rabbits after human RPE cells, subconjunctival injection; assay type: in vivo, rabbit; conditions: subconjunctival 0.3 mg once a day for five days
Text: Due to the toxicity of certain RAR agonists and because the effects of retinoids are delayed in onset and reversible, methods for sustained release of the retinoids were investigated. […] The therapeutic effect of the RAR specific agonists was greater than that of RA, which is an agonist for both RXRs and RARs. There were no signs of any toxicity to the retina.

[8] = system: traction retinal detachment in rabbits; assay: Traction retinal detachment in rabbits after human dermal fibroblasts, subconjunctival lipid microvesicles; assay type: in vivo, rabbit; conditions: human dermal fibroblasts
[9] = system: rabbit model of PVR; conditions: about 100 μg in biodegradable microspheres, vitreous cavity; cited from earlier work
[10] = system: RPE cells; assay: RPE cell morphology after 10 days in retinoid; assay type: cell-based, human; conditions: 1 μm, 5% serum, on plastic
[11] = target: T1, RXRα (Homo sapiens, UniProt P19793); assay: Transactivation, ER/RXR-α hybrid receptor + ERE-CAT reporter cotransfected in HeLa cells
T1 sequence (P19793 227-458 limits assumed): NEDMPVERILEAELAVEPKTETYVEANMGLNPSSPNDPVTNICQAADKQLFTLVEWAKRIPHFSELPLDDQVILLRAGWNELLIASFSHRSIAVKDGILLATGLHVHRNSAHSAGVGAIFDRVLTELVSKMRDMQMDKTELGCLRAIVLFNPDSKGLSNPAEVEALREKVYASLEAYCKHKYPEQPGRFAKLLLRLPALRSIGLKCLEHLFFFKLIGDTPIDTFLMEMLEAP

[12] = target: T2, RARγ (Homo sapiens, UniProt P13631); assay: Transactivation, ER/RAR-γ hybrid receptor + ERE-CAT reporter cotransfected in HeLa cells
T2 sequence (P13631 185-419 limits assumed): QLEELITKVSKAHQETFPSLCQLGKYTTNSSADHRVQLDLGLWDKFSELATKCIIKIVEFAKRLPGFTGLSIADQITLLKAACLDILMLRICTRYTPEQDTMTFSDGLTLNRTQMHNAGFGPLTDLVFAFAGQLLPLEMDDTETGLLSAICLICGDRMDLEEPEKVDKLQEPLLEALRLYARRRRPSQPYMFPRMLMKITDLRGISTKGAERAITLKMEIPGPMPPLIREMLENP

[13] = target: T3, RARβ (Homo sapiens, UniProt P10826); assay: Transactivation, ER/RAR-β hybrid receptor + ERE-CAT reporter cotransfected in HeLa cells
T3 sequence (P10826 183-417 limits assumed): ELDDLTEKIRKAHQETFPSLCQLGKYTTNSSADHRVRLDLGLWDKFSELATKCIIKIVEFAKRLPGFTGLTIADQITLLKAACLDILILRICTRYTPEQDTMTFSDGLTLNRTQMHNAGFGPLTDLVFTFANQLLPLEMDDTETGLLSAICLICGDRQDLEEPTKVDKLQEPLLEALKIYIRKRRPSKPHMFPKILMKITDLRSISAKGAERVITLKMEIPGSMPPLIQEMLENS

[14] = system: retinas of the rabbits; assay: Ocular toxicity after single intravitreous injection, histopathology of retina; assay type: in vivo, rabbit; conditions: single intravitreous injection of 100 μg, two weeks after injection
Text: The rabbits were killed two weeks after injection.

[15] = 50 μg, single intravitreous injection
[16] = 100 μg intravitreous, two injections (day 1 and day 2 after cell injection)
[17] = 100 μg intravitreous, two injections
[18] = 100 μg, single intravitreous injection

Question: Which results are given for `CC1=C(/C=C/C(C)=C/C=C/C(C)=C/C(=O)O)C(C)(C)CCC1` [All trans RA, all-trans retinoic acid, reference compound]?
Answer: % Any RD [1]: 50%; % Total RD [1]: 0%; RD at 7 Days, Partial [1]: 0; RD at 7 Days, Total [1]: 0; RD at 14 Days, Partial [1]: 0; RD at 14 Days, Total [1]: 0; RD at 28 Days, Partial [1]: 5; RD at 28 Days, Total [1]: 0; effect on retinal detachments [1]: decreased the number of retinal detachments and slowed the rate at which they developed; prevention of traction retinal detachment [2]: not effective; % Any RD ([2]; human dermal fibroblasts): 67%; % Total RD ([2]; human dermal fibroblasts): 67%; RD at 7 Days, Partial ([2]; human dermal fibroblasts): 1; RD at 7 Days, Total ([2]; human dermal fibroblasts): 0; RD at 14 Days, Partial ([2]; human dermal fibroblasts): 1; RD at 14 Days, Total ([2]; human dermal fibroblasts): 1; RD at 28 Days, Partial ([2]; human dermal fibroblasts): 0; RD at 28 Days, Total ([2]; human dermal fibroblasts): 4; inhibition at 0.05 µM [3]: 52.6%; inhibition at 0.1 µM [3]: 78.3%; inhibition at 1 µM [3]: 99.4%; inhibition of [3H]thymidine incorporation in RPE cells ([3]; incubation for 7 days, FIG. 1): dose-dependent inhibition; Partial RD at 14 Days (number of eyes) [4, 15]: 0; Partial RD at 28 Days (number of eyes) [4, 15]: 0; Total RD at 14 Days (number of eyes) [4, 15]: 4; Total RD at 28 Days (number of eyes) [4, 15]: 4; Any RD (%) [4, 15]: 66.7%; Total RD (%) [4, 15]: 66.7%; Partial RD at 14 Days (number of eyes) [4, 16]: 2; Partial RD at 28 Days (number of eyes) [4, 16]: 4; Total RD at 14 Days (number of eyes) [4, 16]: 0; Total RD at 28 Days (number of eyes) [4, 16]: 0; Any RD (%) [4, 17]: 44.4+ %; Total RD (%) [4, 17]: 0%; Partial RD at 14 Days (number of eyes) [4, 18]: 1; Partial RD at 28 Days (number of eyes) [4, 18]: 1; Total RD at 14 Days (number of eyes) [4, 18]: 0; Total RD at 28 Days (number of eyes) [4, 18]: 1; Any RD (%) [4, 18]: 28.6+ %; Total RD (%) [4, 18]: 14.3%; frequency and severity of traction retinal detachments versus vehicle [4]: fewer (p(0.05) and less severe traction retinal detachments; frequency and severity of retinal detachments versus control [4]: fewer (p(0.05) and less severe retinal detachments; rate of retinal detachment [5]: 44.5%; % Any RD [6]: 100%; % Total RD [6]: 0%; RD at 7 Days, Partial [6]: 0; RD at 7 Days, Total [6]: 0; RD at 14 Days, Partial [6]: 0; RD at 14 Days, Total [6]: 0; RD at 28 Days, Partial [6]: 2; RD at 28 Days, Total [6]: 0; % Any RD [7]: 0%; % Total RD [7]: 0%; RD at 7 Days, Partial [7]: 0; RD at 7 Days, Total [7]: 0; RD at 14 Days, Partial [7]: 0; RD at 14 Days, Total [7]: 0; RD at 28 Days, Partial [7]: 0; RD at 28 Days, Total [7]: 0; % Any RD [8]: 63%; % Total RD [8]: 13%; RD at 7 Days, Partial [8]: 0; RD at 7 Days, Total [8]: 0; RD at 14 Days, Partial [8]: 0; RD at 14 Days, Total [8]: 1; RD at 28 Days, Partial [8]: 4; RD at 28 Days, Total [8]: 1; tractional retinal detachment (TRD) [9]: significantly decreased tractional retinal detachment; RPE cell morphology / cell overgrowth [10]: did not exhibit cell overgrowth

Question: For `C/C(=C\c1cc(C(=O)O)cs1)c1cc2c(cc1C)C(C)(C)CCC2(C)C` [Compound 701, 2-[(E)-2-(5,6,7,8-tetrahydro-3,5,5,8,8-pentamethylnaphthaleen-2-yl)propen-1-yl]thiophene-4-carboxylic acid], which EC50 [11] is on record?
Answer: 100 nM

Question: What about the EC50 [12] of the same compound?
Answer: 1000 nM

Question: And the EC50 [13]?
Answer: 3000 nM

Question: What about the inhibition at 0.05 µM [3] of the same compound?
Answer: 12%

Question: What about the inhibition at 0.1 µM [3] of the same compound?
Answer: 48.8%

Question: And the inhibition at 1 µM [3]?
Answer: 74.6%

Question: And the “inhibition of RPE [3H]thymidine incorporation” value ([3]; incubation for 7 or 10 days)?
Answer: much less effective inhibitor

Question: What about the “Partial RD at 14 Days (number of eyes)” value [4, 16] of the same compound?
Answer: 3

Question: What about the “Partial RD at 28 Days (number of eyes)” value [4, 16] of the same compound?
Answer: 2

Question: What about the “Total RD at 14 Days (number of eyes)” value [4, 16] of the same compound?
Answer: 3

Question: And the “Total RD at 28 Days (number of eyes)” value [4, 16]?
Answer: 5

Question: And the “Any RD (%)” value [4, 17]?
Answer: 87.5%

Question: And the “Total RD (%)” value [4, 17]?
Answer: 62.5%

Question: And the “Partial RD at 14 Days (number of eyes)” value [4, 18]?
Answer: 2

Question: What about the “Partial RD at 28 Days (number of eyes)” value [4, 18] of the same compound?
Answer: 1

Question: And the “Total RD at 14 Days (number of eyes)” value [4, 18]?
Answer: 2

Question: And the “Total RD at 28 Days (number of eyes)” value [4, 18]?
Answer: 3

Question: And the “Any RD (%)” value [4, 18]?
Answer: 80%

Question: And the “Total RD (%)” value [4, 18]?
Answer: 60%

Question: And the “frequency and severity of traction retinal detachments versus vehicle” value [4]?
Answer: did not differ from controls

Question: What about the “frequency and severity of retinal detachments versus control” value [4] of the same compound?
Answer: not statistically different from controls

Question: What about the “RPE cell morphology / cell overgrowth” value [10] of the same compound?
Answer: failed to prevent cell overgrowth

Question: What about the “inner retinal edema, histopathology” value [14] of the same compound?
Answer: a few focal areas of inner retinal edema

Question: What about the “retinal necrosis, histopathology” value [14] of the same compound?
Answer: a few focal areas of retinal necrosis
